# Measurements as given in paper PMC10835127, “Viruses traverse the human proteome through peptide interfaces that can be biomimetically leveraged for drug discovery” (Proceedings of the National Academy of Sciences of the …, 2024).
# Read-outs that look alike come from different tables or passages of the source.
# Key:
# [1] = system: HCV replicon; type: cell-based
# [2] = system: HIV1 strain NL4-3; type: cell-based
# [3] = system: influenza A H1N1 virus; conditions: 48 hr post-treatment, A549
# [4] = system: F. novicida (strain U112); type: cell-based
# [5] = system: EBV
# [6] = normalized mean of HCV replicon readout
# [7] = normalized mean of HIV1 replication readout
# [8] = normalized mean of EBV replication readout
# [9] = normalized mean of HCV replicon readout, peptide screen
# [10] = normalized mean of HIV1 replication readout, peptide screen
# [11] = normalized mean of EBV replication readout, peptide screen
Substance,"HCV Norm MEAN [1, 6]","HIV1 Norm MEAN [2, 7]",Neuraminidase activity normalized to vehicle ([3]; 200 µM peptide),"Neuraminidase activity normalized to vehicle ([3]; 0,823 µM peptide)","Neuraminidase activity normalized to vehicle ([3]; 22,2 µM peptide)","Neuraminidase activity normalized to vehicle ([3]; 2,4691 µM peptide)","Neuraminidase activity normalized to vehicle ([3]; 7,4074 µM peptide)","Neuraminidase activity normalized to vehicle ([3]; 66,6667 µM peptide)",Francisella novicida Norm AUC [4],"EBV Norm MEAN [5, 8]","HCV Norm MEAN [1, 9]","HIV1 Norm MEAN [2, 10]","EBV Norm MEAN [5, 11]",HCV Norm MEAN [1],HIV1 Norm MEAN [2],EBV Norm MEAN [5]
FVKSNWGLF [CPEP101],0.5497,0.9706,"0,7463","1,0136","0,9003","0,9061","0,9057","0,8948",1.6479,1.466,,,,,,
CPEP69: peptide of the viral peptide library; sequence page not shown (MRHIICHGGVITEE),,,"1,1006","0,9574","1,0597","1,0075","1,0635","1,1613",1.041,,0.5472,0.7189,0.4275,,,
KLVTELAENS [CPEP129],0.8005,0.8117,"0,8014","1,1002","0,8882","1,0838","0,9983","0,7782",0.9413,1.255,,,,,,
CPEP142: peptide of the viral peptide library; sequence page not shown (LGIVCPICSQKP),0.308,0.603,"0,8923","0,9385","0,9689","0,9538","0,9445","1,085",1.819,1.863,,,,,,
LTEDRWNKPQKTKGH [CPEP141],,,"0,9005","0,8505","0,9378","0,92","0,9289","0,9241",1.234,,0.7797,0.4657,0.7716,,,
CPEP127: peptide of the viral peptide library; sequence page not shown (LVKPTVYVYSR),0.6257,1.624,"0,2557","0,9001","0,8705","1,007","0,8577","0,9535",0.4703,0.673,,,,,,
RTYGTWEDLFCDESL [CPEP128],,,"0,6933","0,9138","1,0305","1,0131","0,9772","1,0247",0.8745,,0.6752,0.383,1.318,,,
CPEP99: peptide of the viral peptide library; sequence page not shown (SWESHKSGGETRL),,,"1,0243","0,9063","1,004","0,994","0,9109","1,1024",1.1,,0.3379,0.6504,0.7952,,,
LNSLF [CPEP143],0.2751,0.7905,"0,8484","0,6928","0,8423","0,7636","0,8039","0,8807",1.175,1.147,,,,,,
PDSDPQIPPPYVEPTA [CPEP138],,,"1,0087","1,063","1,1918","0,9934","1,0804","1,0379",0.9657,,1.015,0.606,0.9708,,,
PKKKRKV [CPEP56],0.1426,0.9705,"0,9628","1,0162","0,9231","0,8416","0,8936","0,9527",1.16,0.9787,,,,,,
PEPTAPPEE [CPEP147],,,,,,,,,1.176,,,,,1.15,0.3632,0.5114
